In ChEMBL document CHEMBL1201862, “PubChem BioAssay data set” (2004):
One block for each compound: values may come before it. Activity calls are given as the source filed them.

Key:
Galanin receptor type 3 = Galanin receptor type 3 (Homo sapiens, UniProt O60755); assay: Fluorescence-based cell-based primary high throughput dose response assay to identify antagonists of the Galanin Receptor 3 (GalR3).; format: functional
cells = format: functional, cell-based; settings: HEK-CNG
Cytochrome P450 2D6 = Cytochrome P450 2D6 (Homo sapiens, UniProt P10635);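 note: CYP2D6 member of a cytochrome P450 panel assay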
Chain of Cytochrome P450 2D6 (P10635 whole entry): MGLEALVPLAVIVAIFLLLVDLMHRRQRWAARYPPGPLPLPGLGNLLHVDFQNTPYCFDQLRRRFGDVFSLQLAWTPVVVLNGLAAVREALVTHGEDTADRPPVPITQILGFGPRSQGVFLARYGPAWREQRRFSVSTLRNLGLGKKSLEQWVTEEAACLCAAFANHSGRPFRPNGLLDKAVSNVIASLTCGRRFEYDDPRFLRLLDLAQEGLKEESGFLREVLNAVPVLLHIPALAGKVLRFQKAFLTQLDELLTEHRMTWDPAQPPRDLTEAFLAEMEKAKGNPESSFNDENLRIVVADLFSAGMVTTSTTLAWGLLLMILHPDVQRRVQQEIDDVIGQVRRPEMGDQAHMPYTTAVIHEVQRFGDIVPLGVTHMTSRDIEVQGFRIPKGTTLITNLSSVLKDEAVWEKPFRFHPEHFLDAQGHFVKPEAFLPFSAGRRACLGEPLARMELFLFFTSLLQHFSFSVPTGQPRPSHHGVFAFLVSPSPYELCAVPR

Cytochrome P450 2C9 = Cytochrome P450 2C9 (Homo sapiens, UniProt P11712)
Chain of Cytochrome P450 2C9 (P11712 whole entry): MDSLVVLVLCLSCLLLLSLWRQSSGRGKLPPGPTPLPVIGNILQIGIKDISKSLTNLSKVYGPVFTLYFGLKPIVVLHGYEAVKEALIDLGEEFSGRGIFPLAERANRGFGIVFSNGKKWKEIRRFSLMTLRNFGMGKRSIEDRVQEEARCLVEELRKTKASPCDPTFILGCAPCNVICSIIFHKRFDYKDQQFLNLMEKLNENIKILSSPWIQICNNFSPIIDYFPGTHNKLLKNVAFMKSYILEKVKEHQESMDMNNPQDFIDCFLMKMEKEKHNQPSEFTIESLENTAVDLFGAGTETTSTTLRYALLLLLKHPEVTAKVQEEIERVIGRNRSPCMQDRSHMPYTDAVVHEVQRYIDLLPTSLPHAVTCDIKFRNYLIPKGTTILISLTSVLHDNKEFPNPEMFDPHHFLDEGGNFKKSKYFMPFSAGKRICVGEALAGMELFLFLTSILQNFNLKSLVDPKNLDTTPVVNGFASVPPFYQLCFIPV

Kallikrein-7 = Kallikrein-7 (Homo sapiens, UniProt P49862); assay: Fluorescence Intensity-based biochemical primary high throughput dose response assay to identify activators of kallikrein-7 (K7) zymogen.
Chain of Kallikrein-7 (P49862 whole entry): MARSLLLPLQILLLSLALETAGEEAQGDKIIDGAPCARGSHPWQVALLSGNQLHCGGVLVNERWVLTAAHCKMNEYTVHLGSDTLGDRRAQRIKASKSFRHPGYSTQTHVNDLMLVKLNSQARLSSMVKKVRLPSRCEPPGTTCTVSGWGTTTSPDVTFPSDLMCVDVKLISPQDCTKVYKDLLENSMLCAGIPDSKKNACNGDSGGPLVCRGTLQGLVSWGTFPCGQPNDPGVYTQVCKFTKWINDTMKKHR

[1] = target: T1, Sentrin-specific protease 8 (Homo sapiens, UniProt Q96LD8); format: functional
T1 sequence (Q96LD8 whole entry): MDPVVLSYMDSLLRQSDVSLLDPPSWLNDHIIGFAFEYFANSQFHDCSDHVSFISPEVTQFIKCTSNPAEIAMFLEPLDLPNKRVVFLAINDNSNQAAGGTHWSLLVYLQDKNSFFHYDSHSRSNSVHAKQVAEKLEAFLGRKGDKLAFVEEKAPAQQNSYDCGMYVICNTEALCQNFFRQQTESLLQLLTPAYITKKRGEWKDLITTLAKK

[2] = target: T1, Sentrin-specific protease 8; format: functional; remark: listed apart in the source
fMet-Leu-Phe receptor = fMet-Leu-Phe receptor (Homo sapiens, UniProt P21462); assay: formyl peptide receptor binders – dose response (AID 519); format: functional
Chain of fMet-Leu-Phe receptor (P21462 whole entry): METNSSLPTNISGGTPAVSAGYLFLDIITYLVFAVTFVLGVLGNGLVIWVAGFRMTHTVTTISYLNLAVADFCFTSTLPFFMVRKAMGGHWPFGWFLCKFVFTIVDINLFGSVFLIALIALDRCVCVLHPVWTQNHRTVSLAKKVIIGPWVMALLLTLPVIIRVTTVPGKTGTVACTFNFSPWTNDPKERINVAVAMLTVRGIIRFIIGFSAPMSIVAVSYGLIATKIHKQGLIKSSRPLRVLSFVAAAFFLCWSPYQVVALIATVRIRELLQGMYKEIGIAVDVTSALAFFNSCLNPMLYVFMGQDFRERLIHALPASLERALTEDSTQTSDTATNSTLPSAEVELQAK

[3] = target: Nuclear receptor subfamily 5 group A member 2 (Homo sapiens, UniProt O00482); format: functional, cell-based;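 note: HEK293T cells transfected with LRH-1 and a StAR promoter luciferase reporter; potency for inhibitors that lower LRH-1 driven reporter light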
Chain of Nuclear receptor subfamily 5 group A member 2 (O00482 whole entry): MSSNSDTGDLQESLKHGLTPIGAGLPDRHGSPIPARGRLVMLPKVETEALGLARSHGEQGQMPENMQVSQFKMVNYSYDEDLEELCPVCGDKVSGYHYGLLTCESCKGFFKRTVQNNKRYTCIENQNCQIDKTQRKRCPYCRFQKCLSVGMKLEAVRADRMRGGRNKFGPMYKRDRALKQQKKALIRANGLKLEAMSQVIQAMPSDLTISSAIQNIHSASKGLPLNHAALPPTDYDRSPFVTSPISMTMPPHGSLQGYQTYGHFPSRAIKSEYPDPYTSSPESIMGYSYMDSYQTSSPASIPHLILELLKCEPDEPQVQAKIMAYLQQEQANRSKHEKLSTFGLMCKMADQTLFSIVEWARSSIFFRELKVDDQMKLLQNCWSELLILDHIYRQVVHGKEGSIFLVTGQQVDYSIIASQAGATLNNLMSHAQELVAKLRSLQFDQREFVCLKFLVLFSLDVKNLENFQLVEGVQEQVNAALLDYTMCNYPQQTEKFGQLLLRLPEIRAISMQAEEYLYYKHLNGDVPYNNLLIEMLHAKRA

Steroidogenic factor 1 = Steroidogenic factor 1 (Homo sapiens, UniProt Q13285); assay: Counterscreen for inverse agonists of the liver receptor homolog-1 (LRH-1; NR5A2): Luminescence-based cell-based high throughput dose response assay to identify inverse agonists of the Steroidogenic Factor 1 Nuclear Receptor (SF1; NR5A1).; format: functional
Chain of Steroidogenic factor 1 (Q13285 whole entry): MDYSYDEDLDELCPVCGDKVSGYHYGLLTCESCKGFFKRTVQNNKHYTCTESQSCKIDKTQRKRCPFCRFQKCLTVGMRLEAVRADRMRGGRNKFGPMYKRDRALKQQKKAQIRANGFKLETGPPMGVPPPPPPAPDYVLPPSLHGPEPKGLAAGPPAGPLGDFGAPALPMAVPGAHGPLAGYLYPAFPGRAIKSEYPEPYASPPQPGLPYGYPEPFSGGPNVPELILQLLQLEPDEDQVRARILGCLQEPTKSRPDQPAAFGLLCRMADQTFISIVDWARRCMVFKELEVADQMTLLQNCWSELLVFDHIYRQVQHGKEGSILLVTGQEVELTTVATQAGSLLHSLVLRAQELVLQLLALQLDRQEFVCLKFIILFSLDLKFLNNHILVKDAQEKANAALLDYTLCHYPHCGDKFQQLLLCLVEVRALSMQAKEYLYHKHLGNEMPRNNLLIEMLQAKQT

[4] = nonselective StAR promoter luciferase inhibitors – cell-based, luminescence, luciferase reporter, counter-screen for LRH-1 inverse agonist project, dose response (AID 651969); format: functional
[5] = viability loss in HEK293T cells – cell-based, cherry-picks, cytotoxicity control for HIV Vif inhibitor project, dose response (AID 652208); format: functional
[6] = HEK-293T viability loss after treatment – luminescence, T-cell screen hits, cytotoxicity control for TCR NF-kB inhibitor project, dose response (AID 489026); format: functional, cell-based;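 note: cells exposed to compound about 14 hours before the viability readout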
INS1 = assay: INS-1E survival protection against cytokine death – cell-based, luminescence, retest, dose response (AID 449756); format: functional; settings: Rattus norvegicus;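 note: cell death triggered by IL-1 beta plus TNF-alpha plus IFN-gamma mixture; protective hits raise ATP signal compared with cytokine alone wells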
[7] = target: COUP transcription factor 2 (Homo sapiens, UniProt P24468); assay: Luminescence-based cell-based high throughput dose response assay to identify inhibitors of COUP-TFII (NR2F2).; format: functional;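 note: HEK293 cells transiently cotransfected with COUP-TFII expression vector and reporter; luciferase reporter luminescence driven by COUP-TFII from the pX2-168 reporter plasmid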
Chain of COUP transcription factor 2 (P24468 whole entry): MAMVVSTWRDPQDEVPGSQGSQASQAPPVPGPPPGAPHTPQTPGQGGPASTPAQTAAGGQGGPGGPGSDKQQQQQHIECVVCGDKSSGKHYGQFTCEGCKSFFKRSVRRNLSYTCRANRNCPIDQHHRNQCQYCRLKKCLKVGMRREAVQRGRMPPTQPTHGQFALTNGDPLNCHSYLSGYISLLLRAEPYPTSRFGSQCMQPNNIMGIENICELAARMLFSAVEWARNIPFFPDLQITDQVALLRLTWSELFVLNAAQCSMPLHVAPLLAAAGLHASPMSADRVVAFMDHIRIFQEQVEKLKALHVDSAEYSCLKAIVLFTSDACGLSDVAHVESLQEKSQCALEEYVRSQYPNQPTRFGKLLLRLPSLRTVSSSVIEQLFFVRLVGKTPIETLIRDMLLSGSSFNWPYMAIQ

Chain of Galanin receptor type 3 (O60755 whole entry): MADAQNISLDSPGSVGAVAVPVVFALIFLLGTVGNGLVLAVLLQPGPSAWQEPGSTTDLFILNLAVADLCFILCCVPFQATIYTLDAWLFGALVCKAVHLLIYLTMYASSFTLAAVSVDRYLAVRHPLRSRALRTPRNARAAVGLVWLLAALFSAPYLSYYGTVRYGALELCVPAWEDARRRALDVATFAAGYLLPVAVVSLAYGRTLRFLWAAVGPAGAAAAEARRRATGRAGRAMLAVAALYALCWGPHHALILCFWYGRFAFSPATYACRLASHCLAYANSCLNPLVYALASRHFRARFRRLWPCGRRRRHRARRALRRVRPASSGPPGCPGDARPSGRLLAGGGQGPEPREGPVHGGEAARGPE

SMILES: Cc1nc2sc(C#N)c(N)c2c2c1CCCC2
IC50 (Galanin receptor type 3): > 29.9 µM (inactive) | EC50 (cells): > 29.9 µM (inactive) | AC50 (Cytochrome P450 2D6): 0.398 µM (inconclusive) | AC50 (Cytochrome P450 2C9): inconclusive

EC50 (Kallikrein-7): > 69.5 µM (inactive)
SMILES: O=C(NCCCN1CCCC1=O)c1cc2nc(-c3ccco3)cc(C(F)(F)F)n2n1

SMILES: O=C(COC(=O)c1cc(S(=O)(=O)N2CCc3ccccc3C2)ccc1Cl)NCc1ccco1
IC50 [1]: > 100 µM (inactive) | IC50 [2]: 12.4 µM (active)

Ki (fMet-Leu-Phe receptor): > 66.7 µM (inactive)
SMILES: COc1ccc(-c2nc(N3CCCC3)[nH]c(=O)c2C#N)cc1

SMILES: CN(C)S(=O)(=O)c1cccc(C(=O)OCC(=O)Nc2ccc3c(c2)OCCO3)c1
IC50 [3]: 90.5 µM (inactive) | IC50 (Steroidogenic factor 1): 3.18 µM (active) | IC50 [4]: 35.9 µM (inactive)

Ki (fMet-Leu-Phe receptor): > 66.7 µM (inactive)
SMILES: Cc1cc(NC(=O)CSc2nnc(Cn3c(=O)sc4ccccc43)n2-c2ccccc2C)no1

SMILES: COC(=O)c1ccc2c(=O)n(Cc3ccco3)c(SCC(=O)Nc3cc(C)on3)nc2c1
AC50 [5]: 35.7 µM (active)

SMILES: O=C(CSc1nnc(Cn2nnc3ccccc32)o1)N(Cc1ccc(F)cc1)c1ccccc1
IC50 [6]: > 80 µM (inactive) | AC50 (INS1): 4.43 µM (active) | IC50 (Galanin receptor type 3): 1.24 µM (active) | EC50 (cells): > 29.9 µM (inactive) | IC50 [7]: 4.87 µM (active)
